The values that follow are results of earlier work, collected in publication PMC7248880, “Preclinical Incorporation Dosimetry of [^18F]FACH—A Novel ^18F-Labeled MCT1/MCT4 Lactate Transporter Inhibitor for Imaging Cancer Metabolism with PET” (Molecules, 2020).

Each structure is given as a SMILES string.

For series [1] the following is noted: piglet biokinetic data; cited from earlier work.
Series [2] relates to MCT4. Details: method as in PMID 31017677, PMID 31017677. The conditions noted are these: cited from earlier work.
The subject of series [3] is MCT1. Details: method as in PMID 31017677, PMID 31017677. The conditions noted are these: cited from earlier work.

As to `[18F]c1ccc(C2CC3CCCC2N3)cn1` (single isomer, unassigned; (+)) [(+)-[^18F]flubatine], in series [1], the “ED, Preclinical” value was 14.3 μSv/MBq.

Turning to `[18F]CC[C@H]1OC2(CCN(Cc3ccccc3)CC2)c2ccccc21` [(R)-(+)-[^18F]fluspidine], the “ED, Preclinical” value in series [1] is listed as 14.0 μSv/MBq.

As for `FCC[C@@H]1OC2(CCN(Cc3ccccc3)CC2)c2ccccc21` [(S)-(−)-[^18F]fluspidine], the “ED, Preclinical” value in series [1] is 12.9 μSv/MBq.

On to `[18F]c1ccc([C@@H]2C[C@H]3CCC[C@@H]2N3)cn1` [(−)-[^18F]flubatine], for which the “ED, Preclinical” value in series [1] is on record as 14.7 μSv/MBq.

By IC50 is commonly meant the concentration at which inhibition is half-maximal. Regarding `CCCN(CCCF)c1ccc(/C=C(\C#N)C(=O)O)c(OC)c1` [FACH], the IC50 in series [2] was 6.5 nM; in series [3], 11 nM.

In the case of `O=S1(=O)c2ccc([18F])cc2-c2ccc(N3CCN4CCC3CC4)cc21` [[^18F]DBT10], the “ED, Preclinical” value in series [1] is 13.7 μSv/MBq.
